Experiment [1] addresses Melanin-concentrating hormone receptor 2 (Homo sapiens, UniProt Q969V1).
The target of experiment [2] is Melanin-concentrating hormone receptor 1 (Homo sapiens, UniProt Q99705).

Structures are written as SMILES. Bridge positions count the residues as written; N and C are the ends. Peptide text beside a SMILES is read from it.

Sequence of Melanin-concentrating hormone receptor 2 (Q969V1 whole entry): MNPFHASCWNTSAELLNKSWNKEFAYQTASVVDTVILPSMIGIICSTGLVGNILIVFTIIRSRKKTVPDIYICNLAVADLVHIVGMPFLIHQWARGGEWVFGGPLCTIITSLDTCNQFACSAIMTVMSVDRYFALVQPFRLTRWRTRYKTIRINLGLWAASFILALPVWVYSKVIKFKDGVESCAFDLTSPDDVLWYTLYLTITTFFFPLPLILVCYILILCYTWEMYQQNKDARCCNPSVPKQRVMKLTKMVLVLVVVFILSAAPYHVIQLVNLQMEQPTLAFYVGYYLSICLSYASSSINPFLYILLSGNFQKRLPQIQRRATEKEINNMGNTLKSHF
Sequence of Melanin-concentrating hormone receptor 1 (Q99705 as listed by the source): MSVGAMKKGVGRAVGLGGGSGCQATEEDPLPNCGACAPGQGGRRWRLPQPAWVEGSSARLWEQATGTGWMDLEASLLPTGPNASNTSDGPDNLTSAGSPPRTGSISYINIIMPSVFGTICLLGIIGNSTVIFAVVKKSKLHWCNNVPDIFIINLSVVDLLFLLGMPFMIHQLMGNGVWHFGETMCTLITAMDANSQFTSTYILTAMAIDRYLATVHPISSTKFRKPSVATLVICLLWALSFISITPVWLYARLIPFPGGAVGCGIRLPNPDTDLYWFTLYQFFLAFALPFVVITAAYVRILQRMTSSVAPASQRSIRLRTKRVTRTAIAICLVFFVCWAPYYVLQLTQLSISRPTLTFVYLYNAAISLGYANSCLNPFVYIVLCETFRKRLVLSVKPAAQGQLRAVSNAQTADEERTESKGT

Turning to `CSCC[C@@H]1NC(=O)[C@@H](NC(=O)[C@H](CCCNC(=N)N)NC(=O)[C@H](CCSC)NC(=O)[C@@H](NC(=O)[C@@H](N)CC(=O)O)[C@@H](C)O)CSSC[C@@H](C(=O)N[C@@H](Cc2c[nH]c3ccccc23)C(=O)N[C@@H](CCC(=O)O)C(=O)N[C@H](C(=O)O)C(C)C)NC(=O)[C@@H]2CCCN2C(=O)[C@H](CCCNC(=N)N)NC(=O)[C@H](Cc2ccc(O)cc2)NC(=O)[C@H](C(C)C)NC(=O)[C@H](CCCNC(=N)N)NC(=O)CNC(=O)[C@H](C(C)C)NC1=O` [Salmon MCH] (H-DTMRCMVGRVYRPCWEV-OH; disulfide 5-14), the values for the Ki in experiment [1] and in experiment [2] were 437 nM and 0.2 nM, respectively.
As to `CSCC[C@@H]1NC(=O)[C@@H](NC(=O)[C@H](CCCNC(=N)N)NC(=O)[C@H](CC(C)C)NC(=O)[C@H](CCSC)NC(=O)[C@H](CC(=O)O)NC(=O)[C@H](Cc2ccccc2)NC(=O)[C@@H](N)CC(=O)O)CSSC[C@@H](C(=O)N[C@@H](Cc2c[nH]c3ccccc23)C(=O)N[C@@H](CCC(N)=O)C(=O)N[C@H](C(=O)O)C(C)C)NC(=O)[C@@H]2CCCN2C(=O)[C@H](CCCNC(=N)N)NC(=O)[C@H](Cc2ccc(O)cc2)NC(=O)[C@H](C(C)C)NC(=O)[C@H](CCCNC(=N)N)NC(=O)CNC(=O)[C@H](CC(C)C)NC1=O` [hMCH], the Ki (in general, a dissociation constant, usually derived from enzyme kinetics or from competition with a known ligand) in experiment [1] was 1.5 nM.

Source of the values: BindingDB's records for doi:10.1073/pnas.121170598 (Merck Research Laboratories, 2001).
